We go through two compounds from ChEMBL document CHEMBL5252644, “Discovery of SYD5115, a novel orally active small molecule TSH-R antagonist” (Bioorg Med Chem, 2023).

Data set [1] is described as follows: Drug concentration in M22-induced Wistar rat plasma at 12.5 micromol/kg,po measured upto 24 hrs by LC-MS/MS analysis. Format: ADME, cell-free. As to conditions: dose 12.5 µmol/kg; call rule not given here.
Data set [2] is described as follows: Cmax in Wistar Han rat at 5 mg/kg,po administrated for 24 hrs by LC-MS/MS analysis. The class given is ADME, organism-based. The arrangement: dose 5 mg/kg, time 24 hrs, route po. As to conditions: in vivo.
Data set [3] is described as follows: Tmax in Wistar Han rat at 5 mg/kg,po administrated for 24 hrs by LC-MS/MS analysis. As to conditions: in vivo. The class given is ADME, organism-based.
Data set [4] can be described thus: Drug concentration in M22-induced Wistar rat plasma at 12.5 to 100 micromol/kg,po measured upto 24 hrs by LC-MS/MS analysis. As to conditions: dose 12.5-100 µmol/kg. The class given is ADME, cell-free.
Data set [5] can be described thus: Oral bioavailability in Wistar Han rat at 5 mg/kg administrated for 24 hrs by LC-MS/MS analysis. The following applies: in vivo. The class given is ADME, organism-based.
Data set [6] can be described thus: AUC (0-infinity) in Wistar Han rat at 2 mg/kg,iv administrated for 24 hrs by LC-MS/MS analysis. Format: ADME, organism-based. Also on record: time 24 hrs, dose 2 mg/kg, route iv. As to conditions: in vivo.
Data set [7] in a line: AUC (0-infinity) in Wistar Han rat at 5 mg/kg,po administrated for 24 hrs by LC-MS/MS analysis. The arrangement: time 24 hrs, dose 5 mg/kg, route po. Format: ADME, organism-based. The following applies: in vivo.
Data set [8] in a line: Volume of distribution at steady state in Wistar Han rat at 2 mg/kg,iv administrated for 24 hrs by LC-MS/MS analysis. As to conditions: in vivo, read-out: Vdss. Format: ADME, organism-based.

Molecules are shown by their SMILES.

The term Cmax denotes the maximum level reached in the sampled fluid or tissue. Broadly, the Tmax is the time at which the peak concentration occurs. A word on the bioavailability: it is dose-corrected exposure relative to a reference, in per cent. Low values mean poor availability, high ones good availability. As a reminder, the AUC(0-inf) is total exposure, with the tail of the curve extrapolated.

In the case of `CC(=O)N1c2cnc(NC(=O)O[C@@H](C)C(C)(C)C)nc2C2(CCC(F)(F)CC2)C1(C)C`, the figures for the Drug uptake result in data set [1] and in data set [4] were “Not Active” and “Active”, respectively. In data set [2], this compound had a peak concentration (Cmax) of 145 ng/mL. Further, in data set [3], the Tmax stood at 1 h. In data set [5], this compound showed a bioavailability of 47%. For the same compound, the AUC(0-inf) in data set [6] amounted to 617 ng·h/mL; in data set [7], 709 ng·h/mL. In addition, the Vd in data set [8] turned out to be 8.76 L/kg.

In data set [2], `CC(=O)N1CCC(C)(c2ccccc2)c2cc(NC(=O)CCc3cccc(C(F)(F)F)c3)ccc21` (racemic) came in with a Cmax of 52 ng/mL. Further, the time of peak concentration (Tmax) in data set [3] was found to be 1 h. Also, the bioavailability in data set [5] is 8%. Also, the AUC(0-inf) in data set [6] was 694 ng·h/mL; in data set [7] it was 141 ng·h/mL. Moreover, the Vd in data set [8] was 2.41 L/kg.
